Literature values, collected in patent US20250144071A1, “METHOD FOR PRODUCING ELLAGIC ACID-CONTAINING COMPOSITION AND ELLAGIC ACID-CONTAINING COMPOSITION” (SUMITOMO CHEMICAL COMPANY, LIMITED, priority 2022, published 2025).

SMILES: O=c1oc2c(O)c(O)cc3c(=O)oc4c(O)c(O)cc1c4c23 [ellagic acid]
- Solubility of ellagic acid in water: about 20 μg/mL
